Source: ChEMBL document CHEMBL1909046, “DrugMatrix in vitro pharmacology data”

Key:
[1] = target: cGMP-specific 3',5'-cyclic phosphodiesterase (Homo sapiens, UniProt O76074); test: DRUGMATRIX: Phosphodiesterase PDE5 enzyme inhibition (substrate: [3H]cGMP + cGMP); assay type: tissue-based, Platelet; details: platelet; Not Active = under 50% inhibition at 10 µM
[2] = target: Receptor tyrosine-protein kinase erbB-2 (Homo sapiens, UniProt P04626); test: biochemical; assay type: cell-based, Insect cells; details: insect cells;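 also: inhibition of HER2 kinase enzyme activity, measured with Poly(Glu:Tyr) as the phosphorylation substrate; in other assays of this panel Not Active means under 50% inhibition at 10 µM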
Receptor tyrosine-protein kinase erbB-2, sequence (P04626 whole entry): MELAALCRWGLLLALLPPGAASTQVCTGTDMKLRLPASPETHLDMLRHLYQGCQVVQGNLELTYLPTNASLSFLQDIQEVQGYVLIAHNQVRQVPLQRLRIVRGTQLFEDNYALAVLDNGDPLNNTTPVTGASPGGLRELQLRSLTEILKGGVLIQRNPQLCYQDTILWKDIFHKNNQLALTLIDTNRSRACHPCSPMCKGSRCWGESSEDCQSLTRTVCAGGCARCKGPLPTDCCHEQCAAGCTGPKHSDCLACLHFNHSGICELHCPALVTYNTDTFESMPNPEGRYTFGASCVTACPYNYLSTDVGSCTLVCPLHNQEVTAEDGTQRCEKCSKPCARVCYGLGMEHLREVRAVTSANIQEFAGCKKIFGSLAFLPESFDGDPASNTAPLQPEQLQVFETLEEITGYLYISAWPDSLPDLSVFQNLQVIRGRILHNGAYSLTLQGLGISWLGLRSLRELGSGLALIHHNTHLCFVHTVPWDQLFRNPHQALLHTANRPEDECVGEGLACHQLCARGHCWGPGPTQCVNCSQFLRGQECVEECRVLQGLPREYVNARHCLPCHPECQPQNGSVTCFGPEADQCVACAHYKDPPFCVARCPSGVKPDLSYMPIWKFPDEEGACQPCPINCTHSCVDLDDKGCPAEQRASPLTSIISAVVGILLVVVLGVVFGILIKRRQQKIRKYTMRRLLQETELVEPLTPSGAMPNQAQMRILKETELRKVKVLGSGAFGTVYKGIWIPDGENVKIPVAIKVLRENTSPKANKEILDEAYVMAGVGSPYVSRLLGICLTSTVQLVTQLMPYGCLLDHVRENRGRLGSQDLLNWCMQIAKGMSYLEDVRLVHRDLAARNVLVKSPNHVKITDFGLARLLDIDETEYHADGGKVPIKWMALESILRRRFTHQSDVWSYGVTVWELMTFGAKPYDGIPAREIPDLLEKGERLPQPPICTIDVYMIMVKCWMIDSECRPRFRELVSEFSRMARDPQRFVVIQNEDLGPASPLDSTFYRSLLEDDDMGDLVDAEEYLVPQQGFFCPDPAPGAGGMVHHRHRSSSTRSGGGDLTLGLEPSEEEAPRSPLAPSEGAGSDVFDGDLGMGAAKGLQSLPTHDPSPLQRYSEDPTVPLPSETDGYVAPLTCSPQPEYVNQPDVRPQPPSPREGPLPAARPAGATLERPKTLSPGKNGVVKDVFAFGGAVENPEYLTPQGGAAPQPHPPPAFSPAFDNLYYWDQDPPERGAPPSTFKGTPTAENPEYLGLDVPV

[3] = DRUGMATRIX: beta-Lactamase enzyme inhibition (substrate: Nitrocefin); parameters: species or system Bacillus cereus; details: Not Active = under 50% inhibition at 10 µM
Nitric oxide synthase 1 = Nitric oxide synthase 1 (Rattus norvegicus, UniProt P29476); assay type: tissue-based, Cerebellum; also: in other assays of this panel Not Active means under 50% inhibition at 10 µM
Nitric oxide synthase 1, sequence (P29476 whole entry): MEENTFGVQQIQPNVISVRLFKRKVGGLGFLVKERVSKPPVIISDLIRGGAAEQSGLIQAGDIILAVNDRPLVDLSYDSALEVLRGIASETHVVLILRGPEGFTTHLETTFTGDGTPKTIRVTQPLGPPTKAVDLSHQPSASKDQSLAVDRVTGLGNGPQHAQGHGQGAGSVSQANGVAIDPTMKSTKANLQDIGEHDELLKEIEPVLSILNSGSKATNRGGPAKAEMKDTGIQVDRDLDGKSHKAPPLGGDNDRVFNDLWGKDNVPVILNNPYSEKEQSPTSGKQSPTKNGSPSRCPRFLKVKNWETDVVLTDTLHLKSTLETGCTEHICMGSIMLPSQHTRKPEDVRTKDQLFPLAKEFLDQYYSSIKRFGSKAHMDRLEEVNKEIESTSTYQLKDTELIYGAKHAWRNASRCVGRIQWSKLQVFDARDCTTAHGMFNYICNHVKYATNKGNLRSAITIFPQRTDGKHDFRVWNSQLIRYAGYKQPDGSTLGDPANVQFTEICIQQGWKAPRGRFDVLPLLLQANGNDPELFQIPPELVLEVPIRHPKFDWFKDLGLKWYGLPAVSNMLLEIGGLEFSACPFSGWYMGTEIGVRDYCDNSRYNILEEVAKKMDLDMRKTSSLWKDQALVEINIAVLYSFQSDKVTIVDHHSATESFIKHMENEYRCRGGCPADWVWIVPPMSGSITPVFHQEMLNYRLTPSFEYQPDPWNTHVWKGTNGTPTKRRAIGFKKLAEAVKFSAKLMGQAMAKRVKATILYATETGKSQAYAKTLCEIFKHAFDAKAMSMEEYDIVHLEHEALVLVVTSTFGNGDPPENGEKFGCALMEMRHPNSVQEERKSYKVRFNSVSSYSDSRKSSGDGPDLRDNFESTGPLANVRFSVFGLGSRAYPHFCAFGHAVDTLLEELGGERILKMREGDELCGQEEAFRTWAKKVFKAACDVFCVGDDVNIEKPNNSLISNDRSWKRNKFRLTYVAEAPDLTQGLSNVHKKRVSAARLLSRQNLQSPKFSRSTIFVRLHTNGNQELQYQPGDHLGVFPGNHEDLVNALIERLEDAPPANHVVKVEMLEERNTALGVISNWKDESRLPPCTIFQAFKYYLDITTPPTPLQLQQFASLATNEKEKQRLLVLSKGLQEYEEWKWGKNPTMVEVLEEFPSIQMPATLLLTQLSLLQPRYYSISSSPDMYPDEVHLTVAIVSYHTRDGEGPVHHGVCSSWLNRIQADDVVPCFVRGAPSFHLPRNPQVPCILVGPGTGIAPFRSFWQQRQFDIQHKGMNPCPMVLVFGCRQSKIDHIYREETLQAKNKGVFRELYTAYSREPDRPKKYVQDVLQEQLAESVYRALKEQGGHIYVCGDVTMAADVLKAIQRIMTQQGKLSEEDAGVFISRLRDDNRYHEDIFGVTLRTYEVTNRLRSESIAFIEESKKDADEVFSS

D(3) dopamine receptor = D(3) dopamine receptor (Homo sapiens, UniProt P35462); test: DRUGMATRIX: Dopamine D3 radioligand binding (ligand: [3H] Spiperone); assay type: cell membranes, CHO, Membrane; details: cho
[4] = target: 5-hydroxytryptamine receptor 6 (Homo sapiens, UniProt P50406); assay type: cell membranes, HeLa, Membrane; details: hela; also: in other assays of this panel Not Active means under 50% inhibition at 10 µM
5-hydroxytryptamine receptor 6, sequence (P50406 whole entry): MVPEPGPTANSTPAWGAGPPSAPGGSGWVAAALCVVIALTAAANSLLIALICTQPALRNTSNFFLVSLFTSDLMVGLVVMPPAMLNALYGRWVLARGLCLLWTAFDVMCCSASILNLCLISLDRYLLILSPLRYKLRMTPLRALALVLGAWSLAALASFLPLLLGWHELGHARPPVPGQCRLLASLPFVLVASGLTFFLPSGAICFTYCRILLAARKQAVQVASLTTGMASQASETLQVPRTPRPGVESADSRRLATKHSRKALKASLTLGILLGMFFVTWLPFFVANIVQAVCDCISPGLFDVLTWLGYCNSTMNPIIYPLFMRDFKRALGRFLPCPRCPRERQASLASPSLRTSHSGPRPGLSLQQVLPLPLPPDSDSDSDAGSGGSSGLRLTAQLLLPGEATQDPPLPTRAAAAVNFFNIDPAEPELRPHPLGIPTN

Neutrophil elastase = target: T1, Neutrophil elastase (Homo sapiens, UniProt P08246); assay type: tissue-based;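 also: inhibition of neutrophil elastase enzyme activity, measured with a p-nitroanilide-linked peptide substrate; in other assays of this panel Not Active means under 50% inhibition at 10 µM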
T1 sequence (P08246 whole entry): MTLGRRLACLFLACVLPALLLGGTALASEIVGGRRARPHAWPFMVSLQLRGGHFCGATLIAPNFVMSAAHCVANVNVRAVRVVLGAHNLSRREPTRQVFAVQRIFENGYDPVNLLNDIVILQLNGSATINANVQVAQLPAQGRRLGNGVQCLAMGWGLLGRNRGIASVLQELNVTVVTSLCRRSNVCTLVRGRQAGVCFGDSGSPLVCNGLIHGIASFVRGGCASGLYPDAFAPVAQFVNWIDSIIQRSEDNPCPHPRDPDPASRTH

Cytochrome P450 2E1 = Cytochrome P450 2E1 (Homo sapiens, UniProt P05181); details: bti-tn-5b1-4; also: in other assays of this panel Not Active means under 50% inhibition at 10 µM
[5] = target: T2, 3-hydroxy-3-methylglutaryl-coenzyme A reductase (Homo sapiens, UniProt P04035); parameters: species or system Escherichia coli
T2 sequence (P04035 whole entry): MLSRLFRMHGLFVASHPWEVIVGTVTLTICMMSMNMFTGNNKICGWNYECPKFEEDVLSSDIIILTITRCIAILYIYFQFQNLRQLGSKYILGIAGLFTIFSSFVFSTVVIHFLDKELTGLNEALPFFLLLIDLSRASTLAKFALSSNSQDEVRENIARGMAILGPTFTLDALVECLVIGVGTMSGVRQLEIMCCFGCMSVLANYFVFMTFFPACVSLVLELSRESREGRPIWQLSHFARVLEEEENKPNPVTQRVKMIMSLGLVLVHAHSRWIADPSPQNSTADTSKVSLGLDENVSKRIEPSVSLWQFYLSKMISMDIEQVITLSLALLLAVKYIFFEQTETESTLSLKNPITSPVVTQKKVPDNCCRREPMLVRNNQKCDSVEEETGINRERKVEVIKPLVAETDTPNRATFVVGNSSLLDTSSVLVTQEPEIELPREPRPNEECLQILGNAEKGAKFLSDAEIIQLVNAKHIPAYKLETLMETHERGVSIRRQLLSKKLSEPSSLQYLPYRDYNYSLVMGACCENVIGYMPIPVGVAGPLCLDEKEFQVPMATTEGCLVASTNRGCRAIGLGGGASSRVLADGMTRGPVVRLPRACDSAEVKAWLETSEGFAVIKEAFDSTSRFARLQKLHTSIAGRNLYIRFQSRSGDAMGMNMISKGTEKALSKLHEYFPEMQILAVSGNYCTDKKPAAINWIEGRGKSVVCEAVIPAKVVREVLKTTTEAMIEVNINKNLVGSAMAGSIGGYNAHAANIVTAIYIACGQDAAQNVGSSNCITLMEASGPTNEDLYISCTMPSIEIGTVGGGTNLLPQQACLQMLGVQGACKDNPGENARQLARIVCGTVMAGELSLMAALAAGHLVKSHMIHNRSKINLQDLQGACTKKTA

[6] = target: T3, Type-2 angiotensin II receptor (Homo sapiens, UniProt P50052); assay type: cell-based; details: cho-k1; also: in other assays of this panel Not Active means under 50% inhibition at 10 µM
T3 sequence (P50052 whole entry): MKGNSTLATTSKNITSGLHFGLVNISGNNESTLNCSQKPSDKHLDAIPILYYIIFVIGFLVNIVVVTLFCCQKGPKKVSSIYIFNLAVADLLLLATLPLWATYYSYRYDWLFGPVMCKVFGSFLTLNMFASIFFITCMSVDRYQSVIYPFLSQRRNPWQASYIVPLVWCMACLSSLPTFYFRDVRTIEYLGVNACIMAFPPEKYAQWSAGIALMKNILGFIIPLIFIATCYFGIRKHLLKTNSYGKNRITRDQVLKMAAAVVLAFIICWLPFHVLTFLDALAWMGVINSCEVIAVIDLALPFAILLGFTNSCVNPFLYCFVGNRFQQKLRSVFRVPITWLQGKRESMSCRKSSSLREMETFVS

[7] = DRUGMATRIX: Sodium/nucleoside co-transporter radioligand binding (ligand: nitrobenzylthioinosine); assay type: cell membranes, Cavia porcellus, Dunkin-Hartley, Cerebral cortex, Membrane; details: Not Active = under 50% inhibition at 10 µM
Vasopressin V1a receptor = Vasopressin V1a receptor (Homo sapiens, UniProt P37288); assay type: cell membranes, Membrane; details: hek293; also: in other assays of this panel Not Active means under 50% inhibition at 10 µM
Vasopressin V1a receptor, sequence (P37288 whole entry): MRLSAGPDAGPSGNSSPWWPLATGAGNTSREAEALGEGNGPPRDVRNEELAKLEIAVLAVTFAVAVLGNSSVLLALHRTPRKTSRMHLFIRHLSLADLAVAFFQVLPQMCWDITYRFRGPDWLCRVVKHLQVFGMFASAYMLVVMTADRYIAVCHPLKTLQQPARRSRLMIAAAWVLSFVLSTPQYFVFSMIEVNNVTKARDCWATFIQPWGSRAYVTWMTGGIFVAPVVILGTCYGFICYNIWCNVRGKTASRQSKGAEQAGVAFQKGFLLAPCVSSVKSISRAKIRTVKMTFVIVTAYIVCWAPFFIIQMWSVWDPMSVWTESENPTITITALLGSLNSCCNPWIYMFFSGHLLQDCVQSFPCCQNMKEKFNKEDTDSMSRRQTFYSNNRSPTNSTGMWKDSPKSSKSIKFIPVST

[8] = target: Prostaglandin G/H synthase 1 (Homo sapiens, UniProt P23219); test: biochemical; assay type: tissue-based, Platelet; details: platelet
Prostaglandin G/H synthase 1, sequence (P23219 whole entry): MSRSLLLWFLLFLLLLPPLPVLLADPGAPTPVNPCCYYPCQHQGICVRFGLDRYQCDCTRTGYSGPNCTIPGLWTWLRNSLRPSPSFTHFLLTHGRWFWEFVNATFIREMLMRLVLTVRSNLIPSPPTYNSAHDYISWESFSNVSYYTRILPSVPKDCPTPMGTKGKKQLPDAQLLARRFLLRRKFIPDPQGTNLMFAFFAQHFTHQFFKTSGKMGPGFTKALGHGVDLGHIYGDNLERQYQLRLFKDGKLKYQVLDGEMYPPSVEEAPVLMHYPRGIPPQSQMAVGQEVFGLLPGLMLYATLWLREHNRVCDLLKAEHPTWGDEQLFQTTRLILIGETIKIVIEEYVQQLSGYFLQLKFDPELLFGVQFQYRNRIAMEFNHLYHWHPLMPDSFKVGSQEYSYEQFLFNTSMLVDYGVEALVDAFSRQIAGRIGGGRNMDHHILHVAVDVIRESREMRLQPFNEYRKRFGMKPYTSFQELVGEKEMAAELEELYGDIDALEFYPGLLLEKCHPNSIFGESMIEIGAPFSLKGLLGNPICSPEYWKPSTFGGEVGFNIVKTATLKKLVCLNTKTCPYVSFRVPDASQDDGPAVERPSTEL

Cannabinoid receptor 1 = Cannabinoid receptor 1 (Homo sapiens, UniProt P21554); assay type: cell membranes, Membrane; details: chem-1; also: in other assays of this panel Not Active means under 50% inhibition at 10 µM
Cannabinoid receptor 1, sequence (P21554 whole entry): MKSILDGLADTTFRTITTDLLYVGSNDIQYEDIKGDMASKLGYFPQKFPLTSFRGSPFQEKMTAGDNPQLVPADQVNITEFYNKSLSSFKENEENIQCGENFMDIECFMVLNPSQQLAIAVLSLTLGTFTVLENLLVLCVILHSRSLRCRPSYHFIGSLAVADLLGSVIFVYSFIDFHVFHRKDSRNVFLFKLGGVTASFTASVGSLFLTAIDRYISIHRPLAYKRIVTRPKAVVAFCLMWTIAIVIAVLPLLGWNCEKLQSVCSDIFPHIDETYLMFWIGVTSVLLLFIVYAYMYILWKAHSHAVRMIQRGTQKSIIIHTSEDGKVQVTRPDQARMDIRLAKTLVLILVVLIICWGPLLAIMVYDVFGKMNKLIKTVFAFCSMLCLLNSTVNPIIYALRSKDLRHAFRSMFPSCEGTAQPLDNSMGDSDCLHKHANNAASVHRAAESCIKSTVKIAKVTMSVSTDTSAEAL

[9] = target: 5-hydroxytryptamine receptor 1B (Rattus norvegicus, UniProt P28564); assay type: cell membranes, Wistar, Cerebral cortex, Membrane; also: in other assays of this panel Not Active means under 50% inhibition at 10 µM
5-hydroxytryptamine receptor 1B, sequence (P28564 whole entry): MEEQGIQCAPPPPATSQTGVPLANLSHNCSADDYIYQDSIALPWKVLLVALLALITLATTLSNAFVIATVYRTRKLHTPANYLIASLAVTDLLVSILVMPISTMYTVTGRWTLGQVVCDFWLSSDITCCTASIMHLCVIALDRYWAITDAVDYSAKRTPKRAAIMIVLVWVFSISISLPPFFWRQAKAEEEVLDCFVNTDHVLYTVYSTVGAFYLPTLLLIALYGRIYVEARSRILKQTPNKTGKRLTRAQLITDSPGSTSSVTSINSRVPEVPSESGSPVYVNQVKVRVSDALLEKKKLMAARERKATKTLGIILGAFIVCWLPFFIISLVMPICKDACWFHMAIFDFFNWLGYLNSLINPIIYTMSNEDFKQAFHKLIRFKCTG

[10] = target: T4, Vasoactive intestinal polypeptide receptor 1 (Homo sapiens, UniProt P32241); assay type: cell membranes, Membrane; details: ht-29; also: in other assays of this panel Not Active means under 50% inhibition at 10 µM
T4 sequence (P32241 whole entry): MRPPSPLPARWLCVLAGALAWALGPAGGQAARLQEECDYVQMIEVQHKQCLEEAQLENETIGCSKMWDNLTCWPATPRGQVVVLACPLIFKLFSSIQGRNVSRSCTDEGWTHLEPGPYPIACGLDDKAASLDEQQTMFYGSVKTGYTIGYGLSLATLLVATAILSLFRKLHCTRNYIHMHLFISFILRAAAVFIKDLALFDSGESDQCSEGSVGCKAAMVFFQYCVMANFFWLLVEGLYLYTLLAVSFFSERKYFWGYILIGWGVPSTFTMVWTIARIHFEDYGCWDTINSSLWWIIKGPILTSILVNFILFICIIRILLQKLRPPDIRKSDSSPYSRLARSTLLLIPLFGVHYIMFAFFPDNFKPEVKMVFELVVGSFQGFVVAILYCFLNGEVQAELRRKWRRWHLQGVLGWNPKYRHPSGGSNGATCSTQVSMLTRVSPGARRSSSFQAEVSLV

Nc1ccc(S(N)(=O)=O)cc1 [SULFANILAMIDE]
Not Active: IC50 [1] | IC50 [2] | IC50 [3] | Ki [3] | IC50 (Nitric oxide synthase 1) | IC50 (D(3) dopamine receptor) | IC50 [4] | IC50 (Neutrophil elastase) | IC50 (Cytochrome P450 2E1) | Ki (Cytochrome P450 2E1) | IC50 [5] | IC50 [6] | IC50 [7] | Ki [7] | IC50 (Vasopressin V1a receptor) | IC50 [8] | IC50 (Cannabinoid receptor 1) | IC50 [9] | IC50 [10]

Nc1ccc(S(=O)(=O)Nc2ccnn2-c2ccccc2)cc1 [SULFAPHENAZOLE]
Not Active: IC50 [1] | IC50 [2] | IC50 [3] | Ki [3] | IC50 (Nitric oxide synthase 1) | IC50 (D(3) dopamine receptor) | IC50 [4] | IC50 (Neutrophil elastase) | IC50 (Cytochrome P450 2E1) | Ki (Cytochrome P450 2E1) | IC50 [5] | IC50 [6] | IC50 [7] | Ki [7] | IC50 (Vasopressin V1a receptor) | IC50 [8] | IC50 (Cannabinoid receptor 1) | IC50 [9] | IC50 [10]

C=CC[C@@H]1/C=C(\C)C[C@H](C)C[C@H](OC)[C@H]2O[C@@](O)(C(=O)C(=O)N3CCCC[C@H]3C(=O)O[C@H](/C(C)=C/[C@@H]3CC[C@@H](O)[C@H](OC)C3)[C@H](C)[C@@H](O)CC1=O)[C@H](C)C[C@@H]2OC [TACROLIMUS ANHYDROUS]
Not Active: IC50 [1] | IC50 [2] | IC50 [3] | Ki [3] | IC50 (Nitric oxide synthase 1) | IC50 (D(3) dopamine receptor) | IC50 [4] | IC50 (Neutrophil elastase) | IC50 (Cytochrome P450 2E1) | Ki (Cytochrome P450 2E1) | IC50 [5] | IC50 [6] | IC50 [7] | Ki [7] | IC50 (Vasopressin V1a receptor) | IC50 [8] | IC50 (Cannabinoid receptor 1) | IC50 [9] | IC50 [10]

CC1CN(c2cc3c(cc2F)c(=O)c(C(=O)O)cn3-c2ccc(F)cc2F)CCN1 (configuration not stated) [TEMAFLOXACIN]
Not Active: IC50 [1] | IC50 [2] | IC50 [3] | Ki [3] | IC50 (Nitric oxide synthase 1) | IC50 (D(3) dopamine receptor) | IC50 [4] | IC50 (Neutrophil elastase) | IC50 (Cytochrome P450 2E1) | Ki (Cytochrome P450 2E1) | IC50 [5] | IC50 [6] | IC50 [7] | Ki [7] | IC50 (Vasopressin V1a receptor) | IC50 [8] | IC50 (Cannabinoid receptor 1) | IC50 [9] | IC50 [10]

CC(C)(C)NCC(O)c1cc(O)cc(O)c1 (configuration not stated) [TERBUTALINE]
Not Active: IC50 [1] | IC50 [2] | IC50 [3] | Ki [3] | IC50 (Nitric oxide synthase 1) | IC50 (D(3) dopamine receptor) | IC50 [4] | IC50 (Neutrophil elastase) | IC50 (Cytochrome P450 2E1) | Ki (Cytochrome P450 2E1) | IC50 [5] | IC50 [6] | IC50 [7] | Ki [7] | IC50 (Vasopressin V1a receptor) | IC50 [8] | IC50 (Cannabinoid receptor 1) | IC50 [9] | IC50 [10]

CN(C)[C@@H]1C(O)=C(C(N)=O)C(=O)[C@@]2(O)C(O)=C3C(=O)c4c(O)cccc4[C@@](C)(O)[C@H]3C[C@@H]12 [TETRACYCLINE]
Not Active: IC50 [1] | IC50 [2] | IC50 [3] | Ki [3] | IC50 (Nitric oxide synthase 1) | IC50 (D(3) dopamine receptor) | IC50 [4] | IC50 (Neutrophil elastase) | IC50 (Cytochrome P450 2E1) | Ki (Cytochrome P450 2E1) | IC50 [5] | IC50 [6] | IC50 [7] | Ki [7] | IC50 (Vasopressin V1a receptor) | IC50 [8] | IC50 (Cannabinoid receptor 1) | IC50 [9] | IC50 [10]

c1ccc2[nH]c(-c3cscn3)nc2c1 [THIABENDAZOLE]
Not Active: IC50 [1] | IC50 [2] | IC50 [3] | Ki [3] | IC50 (Nitric oxide synthase 1) | IC50 (D(3) dopamine receptor) | IC50 [4] | IC50 (Neutrophil elastase) | IC50 (Cytochrome P450 2E1) | Ki (Cytochrome P450 2E1) | IC50 [5] | IC50 [6] | IC50 [7] | Ki [7] | IC50 (Vasopressin V1a receptor) | IC50 [8] | IC50 (Cannabinoid receptor 1) | IC50 [9] | IC50 [10]

Cc1ccc(C(=O)C(C)CN2CCCCC2)cc1 (configuration not stated) [TOLPERISONE]
Not Active: IC50 [1] | IC50 [2] | IC50 [3] | Ki [3] | IC50 (Nitric oxide synthase 1) | IC50 (D(3) dopamine receptor) | IC50 [4] | IC50 (Neutrophil elastase) | IC50 (Cytochrome P450 2E1) | Ki (Cytochrome P450 2E1) | IC50 [5] | IC50 [6] | IC50 [7] | Ki [7] | IC50 (Vasopressin V1a receptor) | IC50 [8] | IC50 (Cannabinoid receptor 1) | IC50 [9] | IC50 [10]
